Source: patent US20100290997A1, “Imaging Agents and Methods” (priority 2006, published 2010)
Where a SMILES comes first, the peptide text is derived from it.

What was measured:
[1] = Determination of relaxivity (T1, T2) at 4.7 Tesla; assay type: physicochemical; details: 4.7T MRI experimental scanner
Procedure: (§1) Solutions of PG-Benz-DTPA-Gd-IR783 were prepared in water at gadolinium concentrations of 0.005, 0.01, 0.02, 0.04, 0.08, and 0.16 mM. Spin lattice (T1) and spin-spin (T2) relaxivities were measured at 4.7 Tesla on 4.7T Bruker Biospec 47/40USR (City, State) using inversion recovery and mutiecho T2-weight pulse sequences. Relaxivities (R1 or R2 in mM^−1s^−1) were obtained from linear least square determination of the slopes of 1/T1 vs [Gd] or 1/T2 vs [Gd] plots.
as §1, with “PG-DTPA-Gd-NIR813” for “PG-Benz-DTPA-Gd-IR783”, “(Bruker Biospin Corp., Billerica, Mass.)” for “47/40USR (City, State)”

cathepsin B = biological target: T1, cathepsin B (Homo sapiens, UniProt P07858); assay: Inhibition of biodegradation of L-PG-NIR813 in presence of CB inhibitor II; assay type: biochemical; details: 0.2 unit/mL cathepsin B, 10 μM eq. NIR813
T1 construct: purchased Sigma-Aldrich (St. Louis, Mo.)
Procedure: L-PG-NIR813 with different loading 8.3% and 10%, CB and CB inhibitor II were dissolved in assay buffer respectively. The reaction mixture (100 μL) in each well was composed of 10 μM L-PG-NIR813 probe and 0.2 units/mL CB. The CB inhibitor II was serially diluted in the assay buffer to obtain concentrations ranging from 240 μM to 77 nM. The microwell assay plate was incubated at 37° C. for 24 hr. At predetermined time intervals, the inhibition of biodegradation was examined using Li-Cor Odyssey imager.

[2] = Fluorescence emission spectra; assay type: physicochemical; details: methanol solution; for emission wavelength (maximum): excited at 766 nm
Procedure: Analytical high-performance liquid chromatography (HPLC) was carried out on an Agilent 1100 system (Wilmington, Del.) equipped with a Vydac peptide and protein analytic C-18 column (Anaheim, Calif.). Sample was eluted with water and acetonitrile containing 0.1% TFA varying from 10% to 80% over 30 min. Fluorescence intensity was measured by Spex Fluorolog spectrofluorimeter (Jobin Yvon Inc, Edison, N.J.).
The fluorescence emission spectra of the synthesized contrast agent was obtained using a Spex Fluorolog spectrofluorimeter (Horiba Yvon Jobin, N.J.).

T1 relaxivity (r1) [1] [mmol⁻¹ s⁻¹]	Stokes shift [2] [nm]	excitation wavelength [2] [nm]	emission wavelength (maximum) [2] [nm]	Structure (SMILES)	inhibition of PG-NIR813 degradation by CB (cathepsin B)
4.8				O=C([O-])CN(CCN(CC(=O)[O-])CC(=O)O)CCN(CC(=O)[O-])CC(=O)O.[Gd+3] [DTPA-Gd]	
				CC(=O)N[C@@H](CC(C)C)C(=O)N[C@H](C(=O)N[C@H](C=O)CCCCN)C(C)C [CB inhibitor, Ac-LVK-CHO] (Ac-Leu-Val-Lys-aldehyde)	inhibited by CB inhibitor in a dose-dependent manner
	47	766	813	CC1(C)C(/C=C/C2=C(Sc3ccc(C(=O)NCCCCCN)cc3)C(=C/C=C3/N(CCCCS(=O)(=O)O)c4ccccc4C3(C)C)/CCC2)=[N+](CCCCS(=O)(=O)O)c2ccccc21 [NIR813, IR-783-S-Ph-CONH(CH2)5NH2]	
	32	766	798	CC1(C)C(=CC=C2CCCC(C=CC3=[N+](CCCCS(=O)(=O)[O-])c4ccccc4C3(C)C)=C2Cl)N(CCCCS(=O)(=O)[O-])c2ccccc21.[Na+] [IR783]	
